The values below come from publication PMC8136874, “The entry reaction of the plant shikimate pathway is subjected to highly complex metabolite-mediated regulation” (The Plant Cell, 2021).

Molecules are shown by their SMILES. Bounds are passed on as bounds.

For one assay, the target named is T1, AthDHS1 (Arabidopsis thaliana, UniProt P29976).
T1 construct: AthDHS1; residues 49–525; hexa-histidine; made in house; host or cells: E. coli Rosetta2 (DE3), pET28a
The experiment in a line: DHS enzymatic activity assay with recombinant AthDHS1. The assay is classed as biochemical. As to conditions: for effect on AthDHS1 activity (in words): 1 mM effector; for K m / V max / k cat: various concentrations of the substrate, means ± SEM, n = 3. The protocol: (§1) Unless otherwise noted, DHS enzymatic activity was monitored as previously described ([Liu et al., 2008]), with several optimizations for high-throughput assays with eight-strip PCR tubes and a thermal cycler. The enzyme solution (7.7 µL) containing 50 mM HEPES (pH 7.4) was preincubated with an effector molecule(s) at room temperature for 10 min. For assays using recombinant protein and enzyme fraction isolated from plant leaves, 0.01–0.05 µg and approximately 50 µg of proteins were used, respectively. After adding 0.5 µL of 0.1 M DTT, the samples were further incubated at room temperature for 15 min. […] The enzyme reaction was started by adding 6.8 µL of the substrate solution, then incubated at 37°C for 20 min, and terminated by adding 30 µL of 0.6 M trichloroacetic acid. After brief centrifugation, 5 µL of 200 mM NaIO4 (sodium meta-periodate) in 9 N H3PO4 was added to oxidize the enzymatic product and incubate at 25°C for 20 min. To stop the oxidation reaction, 20 µL of 0.75 M NaAsO2 (sodium arsenite), which was dissolved in 0.5 M Na2SO4 and 0.05 M H2SO4, was immediately mixed. After 5 min of incubation at room temperature, one-third of the sample solution was transferred to a new tube to be mixed with 50 µL of 40 mM thiobarbituric acid and incubated at 99°C for 15 min in a thermal cycler. Developed pink chromophore was extracted by putting the final solutions with 600 µL of cyclohexanone in eight-strip solvent-resistant plastic tubes, mixing vigorously and centrifuging them at 4,500 × g for 3 min to separate water- and cyclohexanone-based layers. The absorbance of the pink supernatant was read at 549 nm with the microplate reader (Infinite 200 PRO, TECAN, Männedorf, Switzerland) to calculate DAHP production with the molar extinction coefficient at 549 nm (ε = 549 nm) of 4.5 × 10^4/M/cm. Reaction mixtures with boiled enzyme or without any substrates were run in parallel and used as negative controls to estimate the background signal for recombinant enzymes or enzymatic fraction from plant tissues, respectively.
(§2) For determination of kinetic parameters, the data of enzymatic activities measured in the presence of various concentration of substrates were calculated with the Michaelis–Menten equation in Graphpad Prism 6 (GraphPad Software, San Diego, CA, USA).

The target in a further assay is T2, AthDHS2 (Arabidopsis thaliana, UniProt Q00218).
T2 construct: AthDHS2; residues 34–507; hexa-histidine; made in house; host or cells: E. coli Rosetta2 (DE3), pET28a
T2 sequence (Q00218 34-507): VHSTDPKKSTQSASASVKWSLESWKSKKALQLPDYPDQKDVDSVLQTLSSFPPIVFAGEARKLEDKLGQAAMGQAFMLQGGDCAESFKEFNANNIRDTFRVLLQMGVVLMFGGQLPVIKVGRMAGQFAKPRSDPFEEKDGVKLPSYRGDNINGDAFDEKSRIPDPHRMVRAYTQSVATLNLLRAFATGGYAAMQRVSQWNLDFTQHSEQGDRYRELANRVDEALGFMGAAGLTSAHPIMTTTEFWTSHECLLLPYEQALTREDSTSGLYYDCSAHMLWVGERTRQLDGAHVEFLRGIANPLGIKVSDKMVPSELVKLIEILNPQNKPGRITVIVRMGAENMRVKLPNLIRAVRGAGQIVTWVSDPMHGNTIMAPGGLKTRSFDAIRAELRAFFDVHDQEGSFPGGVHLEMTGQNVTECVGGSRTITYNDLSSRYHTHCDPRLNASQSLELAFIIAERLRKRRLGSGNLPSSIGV
The experiment in a line: DHS enzymatic activity assay with recombinant AthDHS2. The assay is classed as biochemical. The note with it: for effect on AthDHS2 activity (in words) / inhibition of AthDHS2 activity: 1 mM effector; for k cat / K m / V max: various concentrations of the substrate; for k cat: E4P values assume no substrate inhibition; for K m / V max: E4P values estimated from Lineweaver–Burk plots because of substrate inhibition.

Another assay concerns the target AthDHS3 (Arabidopsis thaliana, UniProt Q9SK84). Briefly: DHS enzymatic activity assay with recombinant AthDHS3. The assay is classed as biochemical. The note with it: for V max: various concentrations of the substrate, means ± SEM, n = 3. The method, then:
as §1, §2

Assay [1] has as its system root growth of Arabidopsis Col-0 and dhs mutants. Briefly: Chemical feeding experiment, root length of 10-day-old seedlings. The assay is classed as in vivo, Arabidopsis thaliana. The method, then: Chemical feeding experiments were carried out as described previously ([de Oliveira et al., 2019]) with some modifications. Seedlings were grown on agar plates containing 0.5 MS with 1% sucrose, 0.8% agar, and 2.5 mM MES at pH 5.7 in the growth chamber where we grew other plants in soil. AAAs and/or shikimate were added to autoclaved media after cooling down to temperatures below 55°C. Plants were grown on the same plate side by side to minimize environmental effects, and multiple plates were prepared to obtain replications. Root lengths of 10-day-old seedlings were quantified by ImageJ.

AthDHS3, sequence (Q9SK84 entry or part of it): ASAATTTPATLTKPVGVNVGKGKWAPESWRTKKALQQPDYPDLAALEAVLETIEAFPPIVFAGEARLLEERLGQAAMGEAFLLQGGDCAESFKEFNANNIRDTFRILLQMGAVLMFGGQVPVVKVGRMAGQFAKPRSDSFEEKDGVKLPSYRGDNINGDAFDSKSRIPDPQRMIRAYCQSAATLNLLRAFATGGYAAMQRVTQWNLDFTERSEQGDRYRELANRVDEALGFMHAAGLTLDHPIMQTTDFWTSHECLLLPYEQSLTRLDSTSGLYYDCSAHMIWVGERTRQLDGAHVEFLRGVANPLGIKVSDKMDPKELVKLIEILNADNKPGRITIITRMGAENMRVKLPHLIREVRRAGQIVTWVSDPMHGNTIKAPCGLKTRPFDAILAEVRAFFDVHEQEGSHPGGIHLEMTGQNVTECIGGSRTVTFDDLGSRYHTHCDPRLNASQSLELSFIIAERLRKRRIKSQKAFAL
T1 sequence (P29976 49-525): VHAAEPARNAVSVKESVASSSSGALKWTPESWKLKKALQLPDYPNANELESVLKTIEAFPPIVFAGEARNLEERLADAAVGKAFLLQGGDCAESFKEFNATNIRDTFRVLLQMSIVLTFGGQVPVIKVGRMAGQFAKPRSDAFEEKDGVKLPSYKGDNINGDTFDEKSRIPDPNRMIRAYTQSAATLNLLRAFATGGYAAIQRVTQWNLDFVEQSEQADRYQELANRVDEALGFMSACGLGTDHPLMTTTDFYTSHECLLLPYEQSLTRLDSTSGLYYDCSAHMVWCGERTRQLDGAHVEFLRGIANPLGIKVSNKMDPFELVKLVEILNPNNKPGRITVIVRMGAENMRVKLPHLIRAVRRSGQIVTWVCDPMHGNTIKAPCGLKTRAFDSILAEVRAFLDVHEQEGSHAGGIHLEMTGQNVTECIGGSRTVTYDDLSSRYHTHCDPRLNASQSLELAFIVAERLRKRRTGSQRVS

On to `N[C@@H](CC(=O)O)C(=O)O` [aspartate], for which the “effect on AthDHS1 activity (in words)” value at AthDHS1 is on record as “did not affect”.
With `O=C(/C=C/c1ccc(O)c(O)c1)OC1CC(C(=O)O)=CC(O)C1O` (stereo not shown) [Caffeoyl shikimate], the “effect on AthDHS2 activity (in words)” value on AthDHS2 is given as “fully inhibited”. Besides, the “effect on AthDHS1 activity (in words)” value on AthDHS1 is given as “fully inhibited”. For the same compound, on AthDHS3 (1 mM effector), the “reduction of AthDHS3 activity” value is 70%.
For the compound `C=C(OP(=O)(O)O)C(=O)O` [PEP, phosphoenolpyruvate], on AthDHS2, the k cat was determined as 8.95 ± 0.44 s⁻¹, the K m is listed as 360 ± 34 µM and the V max was 9.81 ± 0.48 nmol/µM/min. Moreover, at AthDHS1, the K m was determined as 250 ± 53 µM, the V max turned out to be 15.3 ± 0.62 nmol/µM/min and the k cat is 14 ± 0.57 s⁻¹. In addition, the V max at AthDHS3 was found to be 9.15 ± 0.27 nmol/µM/min.
`O=C[C@H](O)[C@H](O)COP(=O)(O)O` [E4P, D-erythrose 4-phosphate]: the “substrate concentration beyond which AthDHS2 was inhibited” value at AthDHS2 (substrate inhibition) is above 4 mM. Further, on AthDHS2, the k cat stood at 11.8 ± 1.6 s⁻¹, the K m is 1755 ± 400 µM and the V max is reported as 12.9 ± 1.8 nmol/µM/min. For the same compound, on AthDHS1, the K m was found to be 2842 ± 910 µM, the V max came to 17.8 ± 0.59 nmol/µM/min and the k cat is 16.4 ± 0.54 s⁻¹. Besides, the V max on AthDHS3 turned out to be 9.92 ± 0.31 nmol/µM/min.
On to `COc1cc(/C=C/C(=O)O)ccc1O` [ferulate], for which the “effect on AthDHS2 activity (in words)” value on AthDHS2 was “no effects”. Moreover, the “effect on AthDHS1 activity (in words)” value on AthDHS1 was “no effects”. The “effect on AthDHS3 activity (in words)” value on AthDHS3 (1 mM effector) is “no effects”.
As to `O=C(O)/C=C/c1ccccc1` [cinnamate], on AthDHS2, the “effect on AthDHS2 activity (in words)” value is reported as “no effects”. On AthDHS1, the “effect on AthDHS1 activity (in words)” value is on record as “no effects”. At AthDHS3 (1 mM effector), the “effect on AthDHS3 activity (in words)” value is recorded as “no effects”.
As to `O=C(O)C1=C[C@@H](O)[C@@H](O)[C@H](O)C1` [shikimate], the “inhibition of AthDHS2 activity” value on AthDHS2 is “approximately 30%”. Moreover, the “sensitivity of root growth” value in assay [1] (dhs mutants, up to 1000 µM) is listed as “none of the dhs mutants showed sensitivity”. Moreover, the “effect of the added compound on Trp-mediated root growth inhibition of dhs3” value in assay [1] (media with 300 µM Trp, AAAs added at 300 µM, shikimate at 500 µM) is “no effect”. In assay [1] (media with 300 µM Tyr, AAAs added at 300 µM, shikimate at 500 µM), the “effect of the added compound on Tyr-mediated root growth inhibition of dhs1” value is “no effect”. Moreover, the “effect on AthDHS1 activity (in words)” value on AthDHS1 is on record as “did not significantly affect”. The “effect on AthDHS3 activity (in words)” value at AthDHS3 (1 mM effector) is on record as “did not significantly affect”.
As for `O=C(O)/C=C/c1ccc(O)cc1` [p-coumarate], at AthDHS2, the “effect on AthDHS2 activity (in words)” value is “no effects”. The “effect on AthDHS1 activity (in words)” value at AthDHS1 is “no effects”. The “effect on AthDHS3 activity (in words)” value on AthDHS3 (1 mM effector) was “no effects”.
Consider `COc1cc(/C=C/C(=O)O)cc(OC)c1O` [sinapate], for which the “effect on AthDHS2 activity (in words)” value at AthDHS2 is listed as “no effects”. The “effect on AthDHS1 activity (in words)” value at AthDHS1 is “no effects”. For the same compound, on AthDHS3 (1 mM effector), the “effect on AthDHS3 activity (in words)” value is “no effects”.
Take `O=C(O)C(=O)CC1(C(=O)O)C=CC(O)C=C1` (stereo not shown) [prephenate]: on AthDHS2, the “inhibition of AthDHS2 activity” value is reported as around 25%. Also, the “effect on AthDHS1 activity (in words)” value at AthDHS1 was “did not significantly affect”. In addition, on AthDHS3 (1 mM effector), the “effect on AthDHS3 activity (in words)” value is given as “did not significantly affect”.
